Experimental data: ChEMBL document CHEMBL6121021, “Design and Synthesis of Topoisomerases-Histone Deacetylase Dual Targeted Quinoline-Bridged Hydroxamates as Anticancer Agents” (J Med Chem, 2025)
Activity calls are given as the source filed them. The calls are words filed in the database; no cut-off is given here.

Legend:
MDA-MB-231 [1] = assay: Anti-cancer activity against human MDA-MB-231 cells assessed as decrease in PCNA level at 10 uM incubated for 48 hrs by immunoblot analysis; assay type: functional, cell-based
Histone deacetylase 8 = molecular target: T1, Histone deacetylase 8 (Homo sapiens, UniProt Q9BY41); assay: Inhibition of HDAC8 (unknown origin) by fluorometric assay
T1 sequence (Q9BY41 whole entry): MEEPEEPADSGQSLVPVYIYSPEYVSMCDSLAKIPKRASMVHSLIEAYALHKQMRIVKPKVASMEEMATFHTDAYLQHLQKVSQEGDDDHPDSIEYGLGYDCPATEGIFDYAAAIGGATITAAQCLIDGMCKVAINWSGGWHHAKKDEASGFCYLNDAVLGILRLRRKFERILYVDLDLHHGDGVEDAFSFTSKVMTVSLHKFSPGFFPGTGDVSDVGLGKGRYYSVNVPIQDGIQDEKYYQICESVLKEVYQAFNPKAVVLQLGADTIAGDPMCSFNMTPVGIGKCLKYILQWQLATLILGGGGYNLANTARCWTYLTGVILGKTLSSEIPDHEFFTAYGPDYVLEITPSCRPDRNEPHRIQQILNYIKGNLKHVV

Histone deacetylase 1 = Histone deacetylase 1 (Homo sapiens, UniProt Q13547); assay: Inhibition of HDAC1 extracted from human A549 nucleus incubated for 1 hr by fluorometric assay; assay type: cell-free
Chain of Histone deacetylase 1 (Q13547 whole entry): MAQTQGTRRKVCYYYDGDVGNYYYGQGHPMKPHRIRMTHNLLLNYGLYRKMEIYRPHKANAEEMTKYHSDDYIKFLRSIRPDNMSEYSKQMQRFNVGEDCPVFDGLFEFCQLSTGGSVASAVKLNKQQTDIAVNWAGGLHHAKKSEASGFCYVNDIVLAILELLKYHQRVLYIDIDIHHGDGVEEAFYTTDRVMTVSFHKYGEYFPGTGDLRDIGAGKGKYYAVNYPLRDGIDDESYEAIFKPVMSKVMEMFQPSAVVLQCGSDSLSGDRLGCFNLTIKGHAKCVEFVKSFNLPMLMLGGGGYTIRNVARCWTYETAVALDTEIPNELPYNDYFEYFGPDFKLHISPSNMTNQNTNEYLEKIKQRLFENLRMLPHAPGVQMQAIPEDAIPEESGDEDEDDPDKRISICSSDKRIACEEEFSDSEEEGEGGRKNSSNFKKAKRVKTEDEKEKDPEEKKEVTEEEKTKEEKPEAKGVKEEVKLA

MDA-MB-231 [2] = assay: Anti-cancer activity against human MDA-MB-231 cells assessed as decrease in p21 level at higher concentration incubated for 48 hrs by immunoblot analysis; assay type: functional, cell-based
A549 [3] = assay: Induction of apoptosis in human A549 cells by Annexin-V/PI staining based flow cytometry; assay type: functional, cell-based
NCI-H1299 = assay: cells; assay type: functional, cell-based; conditions: Homo sapiens, NCI-H1299, 48 h
A549 [4] = assay: Induction of cell cycle arrest in human A549 cells assessed as accumulation at G1 phase by PI staining based flow cytometry; assay type: functional
A549 [5] = assay: Induction of apoptosis in human A549 cells at 500 nM by Annexin-V/PI staining based flow cytometry; assay type: functional, cell-based
A549 [6] = assay: In vivo induction of apoptosis in human A549 cells xenografted in athymic nude Crl:NU-Foxn1nu mouse assessed as increase in Bax level at 30 mg/kg, po administered twice a week for 1 month by immunoblot analysis; assay type: functional, organism-based; conditions: time 1.0 months
[7] = Toxicity in athymic nude Crl:NU-Foxn1nu mouse xenografted with human A549 cells assessed as animal survival at 30 mg/kg, po administered twice a week for 1 month; assay type: organism-based; conditions: in vivo, 730 h, time 1 months
[8] = Metabolic stability in mouse hepatocytes assessed as half life at 2 uM measured upto 120 min by LC-MS/MS analysis; assay type: ADME, cell-based, Hepatocyte
Cytochrome P450 1A2 = Cytochrome P450 1A2 (Homo sapiens, UniProt P05177); assay: Inhibition of CYP1A2 in human liver microsomes preincubated for 10 mins followed by NADPH addition measured after 5 mins by LC-MS/MS analysis; assay type: ADME, Microsome
Chain of Cytochrome P450 1A2 (P05177 whole entry): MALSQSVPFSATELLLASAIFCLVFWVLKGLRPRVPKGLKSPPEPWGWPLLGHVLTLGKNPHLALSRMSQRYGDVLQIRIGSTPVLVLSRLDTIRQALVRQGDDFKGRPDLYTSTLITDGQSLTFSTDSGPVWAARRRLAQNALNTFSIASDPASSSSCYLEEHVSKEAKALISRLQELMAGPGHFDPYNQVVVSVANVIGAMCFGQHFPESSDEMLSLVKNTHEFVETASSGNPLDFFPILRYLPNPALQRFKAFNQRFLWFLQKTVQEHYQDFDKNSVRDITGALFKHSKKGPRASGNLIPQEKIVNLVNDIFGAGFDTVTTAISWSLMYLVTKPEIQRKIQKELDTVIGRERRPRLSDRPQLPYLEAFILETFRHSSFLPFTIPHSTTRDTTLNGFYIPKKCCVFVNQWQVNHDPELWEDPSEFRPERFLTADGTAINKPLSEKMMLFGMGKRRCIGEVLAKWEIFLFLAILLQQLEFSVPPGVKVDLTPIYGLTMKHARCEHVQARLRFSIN

A549 [9] = assay: Antitumor activity against human A549 cells xenografted in athymic nude Crl:NU-Foxn1nu mouse assessed as tumor regression at 30 mg/kg, po administered twice a week for 1 month; assay type: functional, organism-based; conditions: time 1.0 months
[10] = Metabolic stability in human hepatocytes assessed as hepatic clearance at 2 uM measured upto 120 min by LC-MS/MS analysis; assay type: ADME, cell-based, Hepatocyte
Histone deacetylase 5 = Histone deacetylase 5 (Homo sapiens, UniProt Q9UQL6); assay: Inhibition of His-tagged recombinant human HDAC5 catalytic domain by fluorogenic assay
A549 [11] = assay: In vivo anti-metastatic activity in human A549 cells xenografted in athymic nude Crl:NU-Foxn1nu mouse assessed as decrease in ZEB1 mRNA level at 30 mg/kg, po administered twice a week for 1 month by qPCR analysis; assay type: functional, organism-based; conditions: time 1.0 months
MDA-MB-231 [12] = assay: Anti-cancer activity against human MDA-MB-231 cells assessed as decrease in CDK-4 level at 1 to 10 uM incubated for 48 hrs by immunoblot analysis; assay type: functional, cell-based; conditions: dose 1-10 µM
[13] = Drug metabolism in human hepatocytes assessed as beta-oxidation M2 metabolite formation at 10 uM by LC-MS/MS analysis; assay type: ADME, cell-based, Hepatocyte
[14] = Drug metabolism in human hepatocytes assessed as direct glucuronide conjugate M9 metabolite formation at 10 uM by LC-MS/MS analysis; assay type: ADME, cell-based, Hepatocyte
Histone deacetylase 2 = Histone deacetylase 2 (Homo sapiens, UniProt Q92769)
Chain of Histone deacetylase 2 (Q92769 whole entry, the tested form may be a part): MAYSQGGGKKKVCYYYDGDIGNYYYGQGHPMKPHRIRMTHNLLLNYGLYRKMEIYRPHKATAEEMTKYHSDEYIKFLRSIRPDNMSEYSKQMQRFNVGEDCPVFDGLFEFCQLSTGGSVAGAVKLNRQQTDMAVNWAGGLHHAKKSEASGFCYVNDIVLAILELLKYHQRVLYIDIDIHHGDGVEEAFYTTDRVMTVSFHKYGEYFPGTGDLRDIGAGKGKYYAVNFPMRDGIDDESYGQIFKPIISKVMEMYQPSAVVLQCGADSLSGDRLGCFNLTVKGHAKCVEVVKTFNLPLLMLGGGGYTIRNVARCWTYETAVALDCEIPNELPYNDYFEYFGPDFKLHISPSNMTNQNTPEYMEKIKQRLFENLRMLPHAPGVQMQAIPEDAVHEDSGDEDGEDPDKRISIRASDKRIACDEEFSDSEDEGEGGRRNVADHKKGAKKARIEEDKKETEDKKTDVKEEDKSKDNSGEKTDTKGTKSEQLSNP

[15] = molecular target: Polyamine deacetylase HDAC10 (Homo sapiens, UniProt Q969S8); assay: Inhibition of N-terminal FLAG-tagged recombinant human HDAC10 (2 to 631 residues) extracted from baculovirus infected Sf9 cells by fluorogenic assay
Chain of Polyamine deacetylase HDAC10 (Q969S8 whole entry, the tested form may be a part): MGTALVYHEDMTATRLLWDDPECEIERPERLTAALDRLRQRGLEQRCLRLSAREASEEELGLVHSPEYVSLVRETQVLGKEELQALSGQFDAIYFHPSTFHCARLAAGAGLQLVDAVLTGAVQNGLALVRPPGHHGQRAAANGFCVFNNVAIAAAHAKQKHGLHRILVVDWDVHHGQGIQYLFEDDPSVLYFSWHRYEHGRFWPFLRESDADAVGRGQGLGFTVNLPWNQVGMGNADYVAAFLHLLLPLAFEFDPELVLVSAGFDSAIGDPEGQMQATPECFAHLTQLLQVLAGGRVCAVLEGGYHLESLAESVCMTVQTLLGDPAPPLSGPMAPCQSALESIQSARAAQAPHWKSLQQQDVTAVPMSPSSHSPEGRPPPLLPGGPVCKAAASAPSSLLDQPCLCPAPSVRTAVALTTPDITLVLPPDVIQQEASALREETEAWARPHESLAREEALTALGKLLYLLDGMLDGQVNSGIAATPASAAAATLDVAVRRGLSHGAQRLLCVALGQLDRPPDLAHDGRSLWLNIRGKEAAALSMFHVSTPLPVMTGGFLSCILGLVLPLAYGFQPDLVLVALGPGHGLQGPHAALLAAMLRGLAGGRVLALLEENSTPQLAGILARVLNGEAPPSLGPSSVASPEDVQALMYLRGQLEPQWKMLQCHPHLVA

Cytochrome P450 2C19 = Cytochrome P450 2C19 (Homo sapiens, UniProt P33261); assay: Inhibition of CYP2C19 in human liver microsomes preincubated for 10 mins followed by NADPH addition measured after 5 mins by LC-MS/MS analysis; assay type: ADME, Microsome
Chain of Cytochrome P450 2C19 (P33261 whole entry): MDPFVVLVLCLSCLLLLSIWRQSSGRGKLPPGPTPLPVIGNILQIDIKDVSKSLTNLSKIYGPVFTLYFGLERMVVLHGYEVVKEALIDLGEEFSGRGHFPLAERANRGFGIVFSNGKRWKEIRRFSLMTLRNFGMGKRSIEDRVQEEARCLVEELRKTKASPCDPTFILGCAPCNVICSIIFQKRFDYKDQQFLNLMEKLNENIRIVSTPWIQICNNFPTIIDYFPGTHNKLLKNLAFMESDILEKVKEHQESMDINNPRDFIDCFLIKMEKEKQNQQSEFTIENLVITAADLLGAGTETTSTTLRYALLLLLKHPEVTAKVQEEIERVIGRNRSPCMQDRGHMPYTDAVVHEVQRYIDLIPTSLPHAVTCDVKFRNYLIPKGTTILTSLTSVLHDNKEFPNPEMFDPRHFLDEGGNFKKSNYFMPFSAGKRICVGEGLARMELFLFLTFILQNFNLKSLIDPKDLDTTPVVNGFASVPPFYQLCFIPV

MDA-MB-231 [16] = assay: Anti-cancer activity against human MDA-MB-231 cells assessed as decrease in p21 level at 1 to 10 uM incubated for 48 hrs by immunoblot analysis; assay type: functional, cell-based; conditions: dose 1-10 µM
A549 [17] = assay: Antitumor activity against human A549 cells xenografted in athymic nude Crl:NU-Foxn1nu mouse assessed as decrease in tumor size at 15 to 30 mg/kg, po administered twice a week for 1 month; assay type: functional, organism-based; conditions: dose 15-30 mg/kg, time 1.0 months
[18] = Antiproliferative activity against human NCI-H1975 cells harboring EGFR T790M mutant incubated for 48 hrs by MTT assay; assay type: functional, cell-based; conditions: NCI-H1975, 48 h
Histone deacetylase 4 = Histone deacetylase 4 (Homo sapiens, UniProt P56524); assay: Inhibition of His/GST-tagged recombinant human HDAC4 by fluorogenic assay
Chain of Histone deacetylase 4 (P56524 whole entry): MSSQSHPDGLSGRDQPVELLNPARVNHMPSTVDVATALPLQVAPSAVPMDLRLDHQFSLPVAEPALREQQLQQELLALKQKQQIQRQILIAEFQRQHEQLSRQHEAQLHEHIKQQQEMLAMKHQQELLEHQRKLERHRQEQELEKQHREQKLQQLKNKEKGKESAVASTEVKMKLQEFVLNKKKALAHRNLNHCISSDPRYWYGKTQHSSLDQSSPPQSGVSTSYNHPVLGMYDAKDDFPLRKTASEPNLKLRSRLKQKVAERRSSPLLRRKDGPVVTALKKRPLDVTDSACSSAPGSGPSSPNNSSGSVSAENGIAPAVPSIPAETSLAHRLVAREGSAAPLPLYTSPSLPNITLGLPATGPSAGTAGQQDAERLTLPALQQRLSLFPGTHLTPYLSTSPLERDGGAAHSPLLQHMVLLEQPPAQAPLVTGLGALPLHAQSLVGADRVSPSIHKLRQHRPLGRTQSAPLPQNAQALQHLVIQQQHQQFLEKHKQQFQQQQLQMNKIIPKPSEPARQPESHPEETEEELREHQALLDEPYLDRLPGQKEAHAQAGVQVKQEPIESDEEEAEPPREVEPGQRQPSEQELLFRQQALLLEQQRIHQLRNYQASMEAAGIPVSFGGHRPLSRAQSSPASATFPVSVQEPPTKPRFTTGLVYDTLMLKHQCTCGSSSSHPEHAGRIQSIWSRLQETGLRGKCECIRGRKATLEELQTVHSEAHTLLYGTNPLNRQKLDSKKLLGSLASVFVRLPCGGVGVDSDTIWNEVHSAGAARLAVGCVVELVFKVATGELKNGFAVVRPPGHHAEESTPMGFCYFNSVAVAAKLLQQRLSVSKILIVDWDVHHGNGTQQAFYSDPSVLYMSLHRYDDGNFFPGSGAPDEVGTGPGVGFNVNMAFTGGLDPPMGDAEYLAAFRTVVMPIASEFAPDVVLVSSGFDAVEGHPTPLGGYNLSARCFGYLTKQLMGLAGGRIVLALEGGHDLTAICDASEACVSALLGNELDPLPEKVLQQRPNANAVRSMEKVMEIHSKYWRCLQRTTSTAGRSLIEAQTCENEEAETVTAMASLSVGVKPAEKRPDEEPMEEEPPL

HEK293 = assay: Antiproliferative activity against HEK293 cells at 10 uM incubated for 48 hrs by MTT assay; assay type: toxicity, cell-based; conditions: human, hek293, 48 h
[19] = Drug metabolism in human hepatocytes assessed as O-dealkylation M5 metabolite formation at 10 uM by LC-MS/MS analysis; assay type: ADME, cell-based, Hepatocyte
Histone deacetylase 11 = Histone deacetylase 11 (Homo sapiens, UniProt Q96DB2); assay: Inhibition of recombinant human HDAC11 by fluorogenic assay
Chain of Histone deacetylase 11 (Q96DB2 whole entry): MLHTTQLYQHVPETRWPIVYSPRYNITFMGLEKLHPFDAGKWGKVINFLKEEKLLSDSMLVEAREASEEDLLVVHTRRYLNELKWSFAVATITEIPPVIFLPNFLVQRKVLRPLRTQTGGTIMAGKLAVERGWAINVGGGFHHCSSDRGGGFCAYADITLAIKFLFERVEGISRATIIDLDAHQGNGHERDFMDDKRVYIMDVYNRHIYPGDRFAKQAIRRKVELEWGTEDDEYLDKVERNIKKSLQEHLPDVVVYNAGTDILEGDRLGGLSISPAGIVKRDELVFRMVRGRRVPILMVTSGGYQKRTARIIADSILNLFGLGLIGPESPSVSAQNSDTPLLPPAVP

A549 [20] = assay: In vivo cytotoxicity against human A549 cells xenografted in athymic nude Crl:NU-Foxn1nu mouse at 15 to 30 mg/kg, po administered twice a week for 1 month; assay type: functional, organism-based; conditions: dose 15-30 mg/kg, time 1.0 months
[21] = molecular target: DNA topoisomerase 2-alpha (Homo sapiens, UniProt P11388); assay: Inhibition of human Topo II-alpha-mediated decatenation of kDNA incubated for 30 mins
A549 [22] = assay: In vivo inhibition of epithelial-mesenchymal transition in human A549 cells xenografted in athymic nude Crl:NU-Foxn1nu mouse assessed as decrease in Twist mRNA level at 30 mg/kg, po administered twice a week for 1 month by qPCR analysis; assay type: functional, organism-based; conditions: time 1.0 months
[23] = Drug metabolism in human hepatocytes assessed as demethylation M6 metabolite formation at 10 uM by LC-MS/MS analysis; assay type: ADME, cell-based, Hepatocyte
A549 [24] = assay: Induction of cell cycle arrest in human A549 cells assessed as accumulation at G1 phase at 500 nM by PI staining based flow cytometry; assay type: functional
[25] = Drug metabolism in human hepatocytes assessed as glucuronide conjugated M8 metabolite formation at 10 uM by LC-MS/MS analysis; assay type: ADME, cell-based, Hepatocyte

In the case of `COc1ccc(-c2ccc3ccc(OCCCCCCC(=O)NO)cc3n2)cc1I`, the Activity (MDA-MB-231 [1]) is reported as “Active”, the IC50 (Histone deacetylase 8) is reported as > 500 nM and the IC50 (Histone deacetylase 1) is reported as 36.2 nM. The Activity (MDA-MB-231 [2]) was “Active”, the Activity (A549 [3]) was “Active” and the IC50 (NCI-H1299) was 1630 nM. The Activity (A549 [4]) was “Active”.
In the case of `COc1ccc(-c2ccc3cc(OCCCCCC(=O)NO)ccc3n2)cc1`, the Activity (A549 [5]) is reported as “Active”, the Activity (A549 [6]) is reported as “Active” and the Activity [7] is reported as “Non-toxic”. The half-life at 2 µM [8] was 1.24 h, the IC50 (Histone deacetylase 8) was > 500 nM and the IC50 (Cytochrome P450 1A2) was 4420 nM. The Activity (A549 [9]) was “Active; Exerted Maximum Effect”, the CLhep predicted at 2 µM [10] was 14 mL/min/kg and the IC50 (Histone deacetylase 5) was 88.2 nM. The Activity (A549 [11]) was “Active”, the Activity (MDA-MB-231 [12]) was “Active” and the Drug metabolism [13] was “metabolite_detected”. For the same compound, the Drug metabolism [14] was “metabolite_detected”, the IC50 (Histone deacetylase 2) was 77.4 nM and the IC50 [15] was 87.1 nM. The IC50 (Cytochrome P450 2C19) was 18000 nM, the Activity (MDA-MB-231 [16]) was “Active” and the Activity (A549 [17]) was “Active”. For the same compound, the IC50 [18] was < 250 nM, the IC50 (Histone deacetylase 4) was 99 nM and the IC50 (Histone deacetylase 1) was 11.9 nM. The Activity (HEK293) was “Non-toxic”, the Drug metabolism [19] was “metabolite_detected” and the IC50 (Histone deacetylase 11) was 58.1 nM. The Activity (A549 [20]) was “Active”, the IC50 [21] was 67800 nM and the inhibition (A549 [22]) was “Active”. For the same compound, the IC50 (NCI-H1299) was 1680 nM, the Drug metabolism [23] was “metabolite_detected” and the Activity (A549 [24]) was “Active”. The Drug metabolism [25] was “metabolite_detected”.
